Biological target: OGG1 (Homo sapiens (Human), UniProt O15527)
Experiment: In vitro OGG1 activity assay
Assay type: biochemical
Conditions: 800 pM OGG1 enzyme, 2 nM human APEX1, 10 nM 8-oxoA:C substrate
Protocol: Method 1: In Vitro OGG1 Activity Assay OGG1 activity is assayed by measuring the increase in fluorescence from a duplex oligonucleotide containing an OGG1 substrate and a fluorophore in close proximity that are quenched by a quencher on the complementary strand. […] OGG1 activity releases the substrate base from DNA by cleaving the N-glycosidic bond between base and deoxyribose. The resulting apurinic site is cleaved by an excessive amount APEX1 activity which cause the duplex to melt, which in turn cause the fluorophore to become unquenched. Compounds to be tested are dissolved in DMSO and nano-dispensed directly into black 384-well plates, followed by transfer of enzyme and substrate solutions. […] The fluorescent signal is recorded in a plate reader equipped with suitable filters to register fluorescein fluorescence.

Sequence of OGG1 (O15527 whole entry): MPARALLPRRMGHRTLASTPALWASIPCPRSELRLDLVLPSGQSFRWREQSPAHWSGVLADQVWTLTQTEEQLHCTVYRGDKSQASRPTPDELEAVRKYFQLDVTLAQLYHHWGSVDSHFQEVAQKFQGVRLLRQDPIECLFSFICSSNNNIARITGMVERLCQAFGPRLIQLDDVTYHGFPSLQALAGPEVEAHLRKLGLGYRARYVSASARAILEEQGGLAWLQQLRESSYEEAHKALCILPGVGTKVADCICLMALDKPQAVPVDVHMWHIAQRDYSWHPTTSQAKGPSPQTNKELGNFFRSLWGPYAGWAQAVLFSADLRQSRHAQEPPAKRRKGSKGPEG

Row | IC50 | SMILES
1 | 109 nM | COc1cc(NC(=O)[C@H]2CC[C@@H](n3c(=O)[nH]c4ncccc43)CC2)ccc1C [Example 232, Cis-N-(3-methoxy-4-methylphenyl)-4-{2-oxo-1H,2H,3H-imidazo[4,5-b]pyridin-1-yl}cyclohexane-1-carboxamide]
2 | 4940 nM | CC1CC(n2c(=O)[nH]c3c(Br)cccc32)CCN1C(=O)Nc1ccc(Cl)c(Cl)c1 (stereo not shown) [Example 112, 4-(4-Bromo-2-oxo-2,3-dihydro-1H-benzo[d]imidazol-1-yl)-N-(3,4-dichlorophenyl)-2-methylpiperidine-1-carboxamide]
3 | 960 nM | COc1cc(NC(=O)[C@H]2CC[C@@H](n3c(=O)[nH]c4c(N5CCOCC5)cccc43)CC2)ccc1C [Example 241, Cis-N-(3-methoxy-4-methylphenyl)-4-[4-(morpholin-4-yl)-2-oxo-2,3-dihydro-1H-1,3-benzodiazol-1-yl]cyclohexane-1-carboxamide]
4 | 239 nM | CC(=O)Nc1cccc2c1[nH]c(=O)n2[C@H]1CC[C@@H](C(=O)Nc2ccc3cc[nH]c3c2)CC1 [Example 290, Cis-4-(4-acetamido-2-oxo-2,3-dihydro-1H-1,3-benzodiazol-1-yl)-N-(1H-indol-6-yl)cyclohexane-1-carboxamide]
5 | 79.5 nM | COc1cc(NC(=O)[C@H]2CC[C@@H](n3c(=O)[nH]c4c(NC(=O)c5nccn5C)cccc43)CC2)ccc1C [Example 318, 1-Methyl-N-{2-oxo-1-[cis-4-[(3-methoxy-4-methylphenyl)carbamoyl]cyclohexyl]-2,3-dihydro-1H-1,3-benzodiazol-4-yl}-1H-imidazole-2-carboxamide]
6 | 1970 nM | O=C(O)c1ccc(-c2cccc3c2[nH]c(=O)n3C2CCN(C(=O)Nc3ccc(Cl)c(Cl)c3)CC2)cc1 [Example 35, 4-(1-{1-[(3,4-Dichlorophenyl)carbamoyl]piperidin-4-yl}-2-oxo-2,3-dihydro-1H-1,3-benzodiazol-4-yl)benzoic acid]
7 | 2800 nM | O=C(Nc1ccc(Cl)cc1)N1CCC(n2c(=O)[nH]c3cc(Cl)ccc32)CC1 [Example 1, 4-(5-Chloro-2-oxo-2,3-dihydro-1H-1,3-benzodiazol-1-yl)-N-(4-chlorophenyl) piperidine-1-carboxamide]
8 | 1080 nM | O=c1[nH]c2c(Br)cccc2n1[C@H]1CC[C@@H](C(=O)Nc2cccc3[nH]ccc23)CC1 [Example 145, (Cis)-4-(4-bromo-2-oxo-2,3-dihydro-1H-1,3-benzodiazol-1-yl)-N-(1H-indol-4-yl)cyclohexane-1-carboxamide]
9 | 2530 nM | COc1ccc(NC(=O)N2CCC(n3c(=O)[nH]c4c(N5Cc6cn[nH]c6C5)cccc43)CC2)cc1Cl [Example 108, N-(3-chloro-4-methoxyphenyl)-4-(2-oxo-4-{1H,4H,5H,6H-pyrrolo[3,4-c]pyrazol-5-yl}-2,3-dihydro-1H-1,3-benzodiazol-1-yl)piperidine-1-carboxamide]
10 | 1710 nM | O=C(Nc1ccc(I)cc1)N1CCC(n2c(=O)[nH]c3c(CCO)cccc32)CC1 [Example 30, 4-[4-(2-Hydroxyethyl)-2-oxo-2,3-dihydro-1H-1,3-benzodiazol-1-yl]-N-(4-iodophenyl)piperidine-1-carboxamide]
11 | 1820 nM | COc1cc(F)cc(NC(=O)[C@H]2CC[C@@H](n3c(=O)[nH]c4c(Br)cccc43)CC2)c1 [Example 155, (Cis)-4-(4-bromo-2-oxo-2,3-dihydro-1H-1,3-benzodiazol-1-yl)-N-(3-fluoro-5-methoxyphenyl)cyclohexane-1-carboxamide]
12 | 5020 nM | COc1ccc(NC(=O)N2CCC(n3c(=O)[nH]c4c(Br)cccc43)C(O)C2)cc1Cl (stereo not shown) [Example 177, 4-(4-Bromo-2-oxo-2,3-dihydro-1H-1,3-benzodiazol-1-yl)-N-(3-chloro-4-methoxyphenyl)-3-hydroxypiperidine-1-carboxamide]
13 | 8.16 nM | CNCCN(C)C(=O)c1cccc2c1[nH]c(=O)n2[C@H]1CC[C@@H](C(=O)Nc2ccc(C)c(OC)c2)CC1 [Example 266, N-Methyl-N-[2-(methylamino)ethyl]-2-oxo-1-[cis-4-[(3-methoxy-4-methylphenyl)carbamoyl]cyclohexyl]-2,3-dihydro-1H-1,3-benzodiazole-4-carboxamide]
14 | 765 nM | O=C(Nc1ccc(I)cc1)N1CCC(n2c(=O)[nH]c3c(-c4ccc[nH]4)cccc32)CC1 [Example 25, N-(4-iodophenyl)-4-[2-oxo-4-(1H-pyrrol-2-yl)-2,3-dihydro-1H-1,3-benzodiazol-1-yl]piperidine-1-carboxamide]
15 | 8800 nM | Cn1cc(NC(=O)[C@H]2CC[C@@H](n3c(=O)[nH]c4c(Br)cccc43)CC2)cn1 [Example 170, (Cis)-4-(4-bromo-2-oxo-2,3-dihydro-1H-1,3-benzodiazol-1-yl)-N-(1-methyl-1H-pyrazol-4-yl)cyclohexane-1-carboxamide]
16 | 56.3 nM | COc1cc(NC(=O)[C@H]2CC[C@@H](n3c(=O)[nH]c4c(N5Cc6cn[nH]c6C5)cccc43)CC2)ccc1C [Example 314, Cis-N-(3-methoxy-4-methylphenyl)-4-(2-oxo-4-{1H,4H,5H,6H-pyrrolo[3,4-c]pyrazol-5-yl}-2,3-dihydro-1H-1,3-benzodiazol-1-yl)cyclohexane-1-carboxamide]

Row | IC50 | SMILES
17 | 9010 nM | COc1ccc(NC(=O)[C@H]2CC[C@@H](n3c(=O)[nH]c4ccc(F)cc43)CC2)cc1F [Example 218, Cis-4-(6-fluoro-2-oxo-2,3-dihydro-1H-1,3-benzodiazol-1-yl)-N-(3-fluoro-4-methoxyphenyl)cyclohexane-1-carboxamide]
18 | 3.94 nM | CNC(=O)c1cccc2c1[nH]c(=O)n2[C@H]1CC[C@@H](C(=O)Nc2ccc(C)c(OC)c2)CC1 [Example 259, N-Methyl-2-oxo-1-[cis-4-[(3-methoxy-4-methylphenyl)carbamoyl]cyclohexyl]-2,3-dihydro-1H-1,3-benzodiazole-4-carboxamide]
19 | 1290 nM | O=c1[nH]c2c(Br)cccc2n1[C@H]1CC[C@@H](C(=O)Nc2ccc(F)c(Cl)c2)CC1 [Example 162, (Cis)-4-(4-bromo-2-oxo-2,3-dihydro-1H-1,3-benzodiazol-1-yl)-N-(3-chloro-4-fluorophenyl)cyclohexane-1-carboxamide]
20 | 6830 nM | N#Cc1ccc(NC(=O)[C@H]2CC[C@@H](n3c(=O)[nH]c4c(Br)cccc43)CC2)cc1 [Example 132, (Cis)-4-(4-bromo-2-oxo-2,3-dihydro-1H-1,3-benzodiazol-1-yl)-N-(4-cyanophenyl)cyclohexane-1-carboxamide]
21 | 1780 nM | Cc1ccc2c(c1)[nH]c(=O)n2C1CCN(C(=O)Nc2ccc(I)cc2)CC1 [Example 11, N-(4-iodophenyl)-4-(5-methyl-2-oxo-2,3-dihydro-1H-1,3-benzodiazol-1-yl)piperidine-1-carboxamide]
22 | 572 nM | COc1ccc(NC(=O)[C@H]2CC[C@@H](n3c(=O)[nH]c4ncccc43)CC2)cc1 [Example 234, Cis-N-(4-methoxyphenyl)-4-{2-oxo-1H,2H,3H-imidazo[4,5-b]pyridin-1-yl}cyclohexane-1-carboxamide]
23 | 4.25 nM | COc1cc(NC(=O)[C@H]2CC[C@@H](n3c(=O)[nH]c4c(C(=O)NCCNS(C)(=O)=O)cccc43)CC2)ccc1C [Example 251, N-(2-Methanesulfonamidoethyl)-2-oxo-1-[cis-4-[(3-methoxy-4-methylphenyl)carbamoyl]cyclohexyl]-2,3-dihydro-1H-1,3-benzodiazole-4-carboxamide]
24 | 1670 nM | Cc1cc(N)c(NC(=O)[C@H]2CC[C@@H](n3c(=O)[nH]c4c(Br)cccc43)CC2)cc1C [Example 223, Cis-N-(2-amino-4,5-dimethylphenyl)-4-(4-bromo-2-oxo-2,3-dihydro-1H-1,3-benzodiazol-1-yl)cyclohexane-1-carboxamide]
25 | 660 nM | Cc1cccc2c1[nH]c(=O)n2C1CCN(C(=O)Nc2ccc(I)cc2)CC1 [Example 4, N-(4-iodophenyl)-4-(4-methyl-2-oxo-2,3-dihydro-1H-1,3-benzodiazol-1-yl)piperidine-1-carboxamide]
26 | 9490 nM | COc1cc(NC(=O)N2CCC(n3c(=O)[nH]c4ccccc43)CC2)ccc1C [Example 210, N-(3-Methoxy-4-methylphenyl)-4-(2-oxo-2,3-dihydro-1H-1,3-benzodiazol-1-yl)piperidine-1-carboxamide]
27 | 47.6 nM | COc1ccc(NC(=O)[C@H]2CC[C@@H](n3c(=O)[nH]c4ncccc43)CC2)cc1C [Example 233, Cis-N-(4-methoxy-3-methylphenyl)-4-{2-oxo-1H,2H,3H-imidazo[4,5-b]pyridin-1-yl}cyclohexane-1-carboxamide]
28 | 1090 nM | O=C(Nc1ccc(I)cc1)N1CCC(n2c(=O)[nH]c3c(C4CC4)cccc32)CC1 [Example 31, 4-(4-Cyclopropyl-2-oxo-2,3-dihydro-1H-1,3-benzodiazol-1-yl)-N-(4-iodophenyl)piperidine-1-carboxamide]
29 | 1390 nM | O=c1[nH]c2c(Br)cccc2n1[C@H]1CC[C@@H](C(=O)Nc2cnc(Cl)c(Cl)c2)CC1 [Example 185, Cis-4-(4-bromo-2-oxo-2,3-dihydro-1H-1,3-benzodiazol-1-yl)-N-(5,6-dichloropyridin-3-yl)cyclohexane-1-carboxamide]
30 | 0.37 nM | COc1cc(NC(=O)[C@H]2CC[C@@H](n3c(=O)[nH]c4c(C(=O)NCC5COCCN5)cccc43)CC2)ccc1C (stereo partly drawn) [Example 292, N-[(Morpholin-3-yl)methyl]-2-oxo-1-[cis-4-[(3-methoxy-4-methylphenyl)carbamoyl]cyclohexyl]-2,3-dihydro-1H-1,3-benzodiazole-4-carboxamide]
31 | 5370 nM | CN(C)c1cccc(NC(=O)[C@H]2CC[C@@H](n3c(=O)[nH]c4c(Br)cccc43)CC2)c1 [Example 198, Cis-4-(4-bromo-2-oxo-2,3-dihydro-1H-1,3-benzodiazol-1-yl)-N-[3-(dimethylamino)phenyl]cyclohexane-1-carboxamide]

— patent US11970474B2, “Substituted benzodiazoles and use thereof in therapy” (THOMAS HELLEDAYS STIFTELSE FÖR MEDICINSK FORSKNING, priority 2018, dated 2024)
